Assay [1] concerns Mycobacterium tuberculosis. Kind of assay: Antimicrobial activity against Mycobacterium tuberculosis H37Rv ATCC 27294 by microplate Almar blue assay. Type of assay: functional.
For the next assay, the system named is Vero. Kind of assay: Cytotoxicity against african green monkey Vero cells at after 72 hrs by MTT assay. Type of assay: cell-based, Chlorocebus sabaeus.
For assay [2], the system named is Mycobacterium tuberculosis. Kind of assay: Antimicrobial activity against Mycobacterium tuberculosis H37Rv ATCC 27294 at 6.25 ug/mL by broth microdilution assay. It counts as functional. (In general: Broth dilution looks for growth in wells or tubes with falling amounts of substance.)
A short description of assay [3]: Selective index, the ratio of IC50 in the african green monkey Vero cells to the MIC to Mycobacterium tuberculosis H37Rv ATCC 27294. Type of assay: functional.
The mark [4] stands for this setting: Mycobacterium tuberculosis, H37Rv ATCC 27294, read-out: MIC.
[5] abbreviates: Chlorocebus sabaeus, Vero, 72 h, read-out: IC50.

Converted amounts (≈) assume the structure as drawn. Where only a bound is given, the exact number is not on record here.

The term MIC denotes the least concentration at which growth counts as inhibited. One may read the IC50 as the point on the concentration scale where inhibition reaches its midpoint. In the case of `NC[C@H](Cc1ccccc1)NC[C@@H]1CCCN1C[C@H](Cc1ccccc1)NC[C@H](Cc1ccccc1)NCCC12CC3CC(CC(C3)C1)C2`, the MIC in assay [1] (setting [4]) was 3.13 µg/mL (≈ 4.73 µM). For the same molecule, the IC50 in the assay on Vero (setting [5]) came to 1.1 µg/mL (≈ 1.66 µM).
As to `NC[C@H](Cc1ccc2ccccc2c1)NC[C@@H]1CCCN1C[C@H](Cc1ccccc1)NC[C@H](Cc1ccccc1)NCCc1ccccc1`, the MIC in assay [1] (setting [4]) was determined as 6.25 µg/mL (≈ 9.56 µM). Moreover, the 50% inhibitory concentration (IC50) in the assay on Vero (setting [5]) worked out at 4.23 µg/mL (≈ 6.47 µM).
One may read the inhibition as the relative decrease from the control value, in per cent. The molecule `CC1CCC(CN2CCN([C@@H](Cc3ccccc3)CN3CCCC3CN3CCNC[C@@H]3Cc3ccccc3)C[C@@H]2Cc2ccccc2)CC1` (stereo partly specified) came in with an inhibition at 6.25 µg/mL in assay [2] of 99%. Also, the MIC is 3.9 µg/mL (≈ 5.89 µM) in assay [1] and 6.25 µg/mL (≈ 9.44 µM) in assay [1] (setting [4]). The IC50 came out at 1.39 µg/mL (≈ 2.1 µM) with Vero (setting [5]) and 0.82 µg/mL (≈ 1.24 µM) in the assay on Vero (vero). In addition, the “Selectivity Index” value in assay [3] came to 0.21.
With `NC[C@H](Cc1ccccc1)NC[C@@H]1CCCN1C[C@H](Cc1ccccc1)NC[C@H](Cc1ccccc1)NCC12CC3CC(CC(C3)C1)C2`, in assay [1] (setting [4]), the MIC was determined as 6.25 µg/mL (≈ 9.65 µM).
With `NC[C@H](Cc1ccccc1)NC[C@@H]1CCCN1C[C@H](Cc1ccccc1)NC[C@H](Cc1ccccc1)NCC1CCCC1`, the MIC in assay [1] (setting [4]) stood at 6.25 µg/mL (≈ 10.7 µM).
Turning to `NC[C@H](Cc1ccccc1)NC[C@@H]1CCCN1C[C@H](Cc1ccccc1)NC[C@H](Cc1ccccc1)NCCCC1CCCC1`, the MIC in assay [1] (setting [4]) came to 6.25 µg/mL (≈ 10.2 µM).
For the molecule `NC[C@H](Cc1ccccc1)NC[C@@H]1CCCN1C[C@H](Cc1ccccc1)NC[C@H](Cc1ccccc1)NCCC1CCCCC1`, the MIC in assay [1] (setting [4]) came out at 6.25 µg/mL (≈ 10.2 µM). Moreover, the IC50 in the assay with Vero (setting [5]) worked out at 1.05 µg/mL (≈ 1.72 µM).
Consider `CCCCCCCN[C@H](CN[C@@H](Cc1ccccc1)CN1CCC[C@H]1CN[C@H](CN)Cc1ccccc1)Cc1ccccc1`, for which the MIC in assay [1] (setting [4]) is over 6.25 µg/mL.
As for `NC[C@H](Cc1ccccc1)NC[C@@H]1CCCN1C[C@H](Cc1ccccc1)NC[C@H](Cc1ccccc1)NCCc1ccc(-c2ccccc2)cc1`, the MIC in assay [1] (setting [4]) is over 6.25 µg/mL.
In assay [2], `c1ccc(C[C@H]2CNCCN2C[C@@H]2CCCN2C[C@H](Cc2ccccc2)N2CCN(CC34CC5CC(CC(C5)C3)C4)[C@@H](Cc3ccccc3)C2)cc1` returned an inhibition at 6.25 µg/mL of 99%. Further, the MIC in assay [1] (setting [4]) worked out at 3.9 µg/mL (≈ 5.57 µM).
In assay [2], `S=C1NC[C@H](Cc2ccccc2)N1C[C@@H]1CCCN1C[C@H](Cc1ccccc1)N1C[C@H](Cc2ccccc2)N(CC23CC4CC(CC(C4)C2)C3)C1=S` showed an inhibition at 6.25 µg/mL of 98%. In assay [1] (setting [4]), the MIC was found to be 6.25 µg/mL (≈ 8.54 µM).
For the molecule `N=C1NC[C@H](Cc2ccccc2)N1C[C@@H]1CCCN1C[C@H](Cc1ccccc1)N1C[C@H](Cc2ccccc2)N(CC23CC4CC(CC(C4)C2)C3)C1=N`, the inhibition at 6.25 µg/mL in assay [2] turned out to be 91%. For the same molecule, the MIC in assay [1] (setting [4]) worked out at 3.9 µg/mL (≈ 5.59 µM).
Regarding `N=C1NC[C@H](Cc2ccccc2)N1CC1CCCN1C[C@H](Cc1ccccc1)N1C[C@H](Cc2ccccc2)N(CC2CCCCCC2)C1=N` (stereo partly specified), 6.25 µg/mL produced 92% inhibition in assay [2]. For the same molecule, the MIC in assay [1] (setting [4]) is 3.9 µg/mL (≈ 5.91 µM). The IC50 in the assay with Vero (setting [5]) is 39.5 µg/mL (≈ 59.8 µM). In addition, in assay [3], the “Selectivity Index” value is 10.1.
As for `N=C1NC[C@H](Cc2ccccc2)N1CC1CCCN1C[C@H](Cc1ccccc1)N1C[C@H](Cc2ccccc2)N(CCc2ccc(Cl)c(Cl)c2)C1=N` (stereo partly specified), in assay [2], the inhibition at 6.25 µg/mL came to 95%. The MIC in assay [1] (setting [4]) was 3.9 µg/mL (≈ 5.4 µM). Moreover, the IC50 with Vero (setting [5]) was determined as 24.5 µg/mL (≈ 33.9 µM). The “Selectivity Index” value in assay [3] is recorded as 6.3.
Molecule `CCC(C)CN1C(=N)N([C@@H](Cc2ccccc2)CN2CCCC2CN2C(=N)NC[C@@H]2Cc2ccccc2)C[C@@H]1Cc1ccccc1` (stereo partly specified) yielded an inhibition at 6.25 µg/mL in assay [2] of 90%. Further, the MIC in assay [1] (setting [4]) is 7.8 µg/mL (≈ 12.6 µM). Further, the IC50 in the assay on Vero (setting [5]) is 36.8 µg/mL (≈ 59.3 µM). Moreover, in assay [3], the “Selectivity Index” value stood at 4.7.
`N=C1NC[C@H](Cc2ccccc2)N1CC1CCCN1C[C@H](Cc1ccccc1)N1C[C@H](Cc2ccccc2)N(CC2CCCC2)C1=N` (stereo partly specified) showed an inhibition at 6.25 µg/mL in assay [2] of 93%. In addition, the MIC in assay [1] (setting [4]) is 7.8 µg/mL (≈ 12.3 µM). Further, the IC50 in the assay with Vero (setting [5]) stood at 33.5 µg/mL (≈ 53.1 µM). The “Selectivity Index” value in assay [3] is recorded as 4.3.
In the case of `CC(C)CCCN1C(=N)N([C@@H](Cc2ccccc2)CN2CCCC2CN2C(=N)NC[C@@H]2Cc2ccccc2)C[C@@H]1Cc1ccccc1` (stereo partly specified), the inhibition at 6.25 µg/mL in assay [2] amounted to 93%. In addition, in assay [1] (setting [4]), the MIC amounted to 7.8 µg/mL (≈ 12.3 µM). Besides, the IC50 in the assay with Vero (setting [5]) amounted to 31 µg/mL (≈ 48.9 µM). Moreover, in assay [3], the “Selectivity Index” value is reported as 3.97.
As for `N=C1NC[C@H](Cc2ccccc2)N1CC1CCCN1C[C@H](Cc1ccccc1)N1C[C@H](Cc2ccccc2)N(CCC23CC4CC(CC(C4)C2)C3)C1=N` (stereo partly specified), in assay [2], the inhibition at 6.25 µg/mL was 91%. For the same molecule, the MIC in assay [1] (setting [4]) worked out at 3.9 µg/mL (≈ 5.48 µM). Besides, in the assay with Vero (setting [5]), the concentration for half-maximal inhibition (IC50) stood at 14.5 µg/mL (≈ 20.3 µM). Further, the “Selectivity Index” value in assay [3] was 3.7.
`N=C1NC[C@H](Cc2ccccc2)N1CC1CCCN1C[C@H](Cc1ccccc1)N1C[C@H](Cc2ccccc2)N(CCCCC2CCCCC2)C1=N` (stereo partly specified): in assay [2], the inhibition at 6.25 µg/mL came to 91%. Also, the MIC in assay [1] (setting [4]) worked out at 3.9 µg/mL (≈ 5.67 µM). The IC50 in the assay on Vero (setting [5]) is 14.3 µg/mL (≈ 20.8 µM). Besides, the “Selectivity Index” value in assay [3] is recorded as 3.7.

The record behind these values is ChEMBL document CHEMBL1153803, “Parallel synthesis of chiral pentaamines and pyrrolidine containing bis-heterocyclic libraries. Multiple scaffolds with multiple building blocks: a double diversity for the identification of new antitubercular compounds” (Bioorg Med Chem Lett, 2009).
